Experimental data as given in ChEMBL document CHEMBL4507326, “Data for DCP probe TP-030-2” (2021).

Key:
[1] = target: Adenosine receptor A1 (Homo sapiens) (UniProt P30542); conditions: Compound concentration 10.0 uM
[2] = target: STE20-like serine/threonine-protein kinase (Homo sapiens, UniProt Q9H2G2); assay: SLK(SLK1LGRJ) Takeda global kinase panel
[3] = target: Gamma-aminobutyric acid type B receptor subunit 1 (Homo sapiens) (UniProt Q9UBS5); assay: Inhibition of GABAB1A at compound concentration of 10.0 uM in the Eurofins-Panlabs radioligand binding assay (Eurofins_assay_228610); set-up: ligand concentration 4 nM; conditions: Compound concentration 10.0 uM
[4] = target: TRAF2 and NCK-interacting protein kinase (Homo sapiens, UniProt Q9UKE5); assay: TNIK [ZC2(TNIKLGF1)] Takeda global kinase panel
[5] = target: Cyclin-dependent kinase 8 (Homo sapiens, UniProt P49336); assay: CDK8(CDK8CGS1) Takeda global kinase panel
[6] = target: Mitogen-activated protein kinase 15 (Homo sapiens, UniProt Q8TD08); assay: ERK7(MP15LGY1) Takeda global kinase panel
Rattus norvegicus = organism: Rattus norvegicus; conditions: Compound concentration 10.0 uM
Ephrin type-A receptor 1 = Ephrin type-A receptor 1 (Homo sapiens, UniProt P21709); assay: EphA1(EPA1LGY1) Takeda global kinase panel
[7] = target: Muscarinic acetylcholine receptor M4 (Homo sapiens) (UniProt P08173); conditions: Compound concentration 10.0 uM
[8] = target: Delta-type opioid receptor (Homo sapiens) (UniProt P41143); conditions: Compound concentration 10.0 uM
[9] = target: Interleukin-1 receptor-associated kinase 3 (Homo sapiens, UniProt Q9Y616); assay: IRAK3(IRK3PFE1) Takeda global kinase panel
[10] = target: Cyclin-dependent kinase 11A (Homo sapiens, UniProt Q9UQ88); assay: CDK11A(C11ALGS1) Takeda global kinase panel
[11] = target: Microtubule-associated serine/threonine-protein kinase 4 (Homo sapiens, UniProt O15021); assay: MAST4(MAS4LGRD) Takeda global kinase panel
[12] = target: Serine/threonine-protein kinase 32C (Homo sapiens, UniProt Q86UX6); assay: YANK3(S32CLGI1) Takeda global kinase panel
[13] = target: cAMP-dependent protein kinase catalytic subunit beta (Homo sapiens, UniProt P22694); assay: PKAbeta(PRCBLGF1) Takeda global kinase panel
[14] = target: Microtubule-associated serine/threonine-protein kinase 3 (Homo sapiens, UniProt O60307); assay: MAST3(MAS3LGE1) Takeda global kinase panel
[15] = target: Casein kinase I isoform gamma-1 (Homo sapiens, UniProt Q9HCP0); assay: CK1gamma1(C1G1LGI1) Takeda global kinase panel
[16] = target: Beta-3 adrenergic receptor (Homo sapiens) (UniProt P13945); conditions: Compound concentration 10.0 uM
[17] = target: Ribosomal protein S6 kinase alpha-4 (Homo sapiens, UniProt O75676); assay: MSK2(R6A4LGRJ) Takeda global kinase panel
[18] = target: Serine/threonine-protein kinase Sgk3 (Homo sapiens, UniProt Q96BR1); assay: SGK3(SGK3LGY1) Takeda global kinase panel
[19] = target: Macrophage colony-stimulating factor 1 receptor (Homo sapiens, UniProt P07333); assay: FmS [CSFR(CSF1LGC1)] Takeda global kinase panel
[20] = target: 5-hydroxytryptamine receptor 1A (Homo sapiens) (UniProt P08908); conditions: Compound concentration 10.0 uM
[21] = target: Serine/threonine-protein kinase LATS2 (Homo sapiens, UniProt Q9NRM7); assay: LATS2(LAT2LGY1) Takeda global kinase panel
[22] = target: Mitogen-activated protein kinase 8 (Homo sapiens, UniProt P45983); assay: JNK1(MAP8LGF1) Takeda global kinase panel
[23] = target: Cysteinyl leukotriene receptor 1 (Homo sapiens) (UniProt Q9Y271); assay: Inhibition of Leukotriene, Cysteinyl CysLT1 at 10 µM in the Eurofins-Panlabs radioligand binding assay (Eurofins_assay_250460); set-up: ligand concentration 0.3 nM, non-specific ligand with concentration 0.3 µM Leukotriene D4, incubation time 30 min, incubation temperature 25 °C; conditions: Compound concentration 10.0 uM
[24] = target: Mitogen-activated protein kinase kinase kinase 11 (Homo sapiens, UniProt Q16584); assay: MLK3(M311LGF1) Takeda global kinase panel
[25] = target: Substance-P receptor (Homo sapiens) (UniProt P25103); assay: Inhibition of Tachykinin NK1 at 10 µM in the Eurofins-Panlabs radioligand binding assay (Eurofins_assay_255520); set-up: ligand concentration 0.8 nM; conditions: Compound concentration 10.0 uM
[26] = target: B1 bradykinin receptor (Homo sapiens) (UniProt P46663); conditions: Compound concentration 10.0 uM
[27] = target: Non-receptor tyrosine-protein kinase TNK1 (Homo sapiens, UniProt Q13470); assay: Tnk1(TNK1LGY1) Takeda global kinase panel
[28] = target: Serine/threonine-protein kinase H1 (Homo sapiens, UniProt P11801); assay: PSKH1(PSH1LGRH) Takeda global kinase panel
[29] = target: Cyclin-dependent kinase 1 (Homo sapiens, UniProt P06493); assay: CDC2 [CDK1(CDK1CGS1)] Takeda global kinase panel
[30] = target: Serine/threonine-protein kinase TAO2 (Homo sapiens, UniProt Q9UL54); assay: TAO2(TAO2LGF1) Takeda global kinase panel
[31] = target: Serine/threonine-protein kinase Nek8 (Homo sapiens, UniProt Q86SG6); assay: Nek8(NEK8LGRI) Takeda global kinase panel
[32] = target: Cyclin-dependent kinase 6 (Homo sapiens, UniProt Q00534); assay: CDK6(CDK6CGS1) Takeda global kinase panel
[33] = target: Cell division cycle 7-related protein kinase (Homo sapiens, UniProt O00311); assay: CDC7(CDC7CGP1) Takeda global kinase panel
[34] = target: Kappa-type opioid receptor (Homo sapiens) (UniProt P41145); conditions: Compound concentration 10.0 uM
[35] = target: Muscarinic acetylcholine receptor M3 (Homo sapiens) (UniProt P20309); conditions: Compound concentration 10.0 uM
[36] = target: Tyrosine-protein kinase HCK (Homo sapiens, UniProt P08631); assay: HCK(HCK1LGF1) Takeda global kinase panel
[37] = target: Dual specificity protein kinase CLK2 (Homo sapiens, UniProt P49760); assay: CLK2(CLK2LGF1) Takeda global kinase panel
[38] = target: Vascular endothelial growth factor receptor 2 (Homo sapiens, UniProt P35968); assay: KDR(KDR1CGY1) Takeda global kinase panel
[39] = target: Beta-2 adrenergic receptor (Homo sapiens) (UniProt P07550); conditions: Compound concentration 10.0 uM
[40] = target: GABA-A receptor; anion channel (Rattus norvegicus) (UniProt O09028+P15431+P18506+P18508+P19969+P20236+P23574+P23576+P28471+P28473+P30191+P62813+P63079+P63138+Q91ZM7+Q9ES14); assay: Inhibition of GABAA, Muscimol, Central at 10 µM in the Eurofins-Panlabs radioligand binding assay (Eurofins_assay_226500); type: protein-complex assay; conditions: Compound concentration 10.0 uM
[41] = target: Mitogen-activated protein kinase 6 (Homo sapiens, UniProt Q16659); assay: ERK3(MAP6LHY1) Takeda global kinase panel

Sequence of Delta-type opioid receptor (Homo sapiens) (P41143 whole entry): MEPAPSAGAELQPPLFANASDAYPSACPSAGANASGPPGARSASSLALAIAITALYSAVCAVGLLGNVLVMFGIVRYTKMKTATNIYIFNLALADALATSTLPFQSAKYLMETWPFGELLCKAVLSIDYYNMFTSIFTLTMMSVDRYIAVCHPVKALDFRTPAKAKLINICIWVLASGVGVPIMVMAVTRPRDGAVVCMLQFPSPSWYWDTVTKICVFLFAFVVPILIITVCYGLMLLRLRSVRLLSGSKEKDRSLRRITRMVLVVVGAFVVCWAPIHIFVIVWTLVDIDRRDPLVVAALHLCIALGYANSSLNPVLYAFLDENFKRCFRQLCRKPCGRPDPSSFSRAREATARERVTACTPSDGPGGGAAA
Sequence of Vascular endothelial growth factor receptor 2 (P35968 whole entry): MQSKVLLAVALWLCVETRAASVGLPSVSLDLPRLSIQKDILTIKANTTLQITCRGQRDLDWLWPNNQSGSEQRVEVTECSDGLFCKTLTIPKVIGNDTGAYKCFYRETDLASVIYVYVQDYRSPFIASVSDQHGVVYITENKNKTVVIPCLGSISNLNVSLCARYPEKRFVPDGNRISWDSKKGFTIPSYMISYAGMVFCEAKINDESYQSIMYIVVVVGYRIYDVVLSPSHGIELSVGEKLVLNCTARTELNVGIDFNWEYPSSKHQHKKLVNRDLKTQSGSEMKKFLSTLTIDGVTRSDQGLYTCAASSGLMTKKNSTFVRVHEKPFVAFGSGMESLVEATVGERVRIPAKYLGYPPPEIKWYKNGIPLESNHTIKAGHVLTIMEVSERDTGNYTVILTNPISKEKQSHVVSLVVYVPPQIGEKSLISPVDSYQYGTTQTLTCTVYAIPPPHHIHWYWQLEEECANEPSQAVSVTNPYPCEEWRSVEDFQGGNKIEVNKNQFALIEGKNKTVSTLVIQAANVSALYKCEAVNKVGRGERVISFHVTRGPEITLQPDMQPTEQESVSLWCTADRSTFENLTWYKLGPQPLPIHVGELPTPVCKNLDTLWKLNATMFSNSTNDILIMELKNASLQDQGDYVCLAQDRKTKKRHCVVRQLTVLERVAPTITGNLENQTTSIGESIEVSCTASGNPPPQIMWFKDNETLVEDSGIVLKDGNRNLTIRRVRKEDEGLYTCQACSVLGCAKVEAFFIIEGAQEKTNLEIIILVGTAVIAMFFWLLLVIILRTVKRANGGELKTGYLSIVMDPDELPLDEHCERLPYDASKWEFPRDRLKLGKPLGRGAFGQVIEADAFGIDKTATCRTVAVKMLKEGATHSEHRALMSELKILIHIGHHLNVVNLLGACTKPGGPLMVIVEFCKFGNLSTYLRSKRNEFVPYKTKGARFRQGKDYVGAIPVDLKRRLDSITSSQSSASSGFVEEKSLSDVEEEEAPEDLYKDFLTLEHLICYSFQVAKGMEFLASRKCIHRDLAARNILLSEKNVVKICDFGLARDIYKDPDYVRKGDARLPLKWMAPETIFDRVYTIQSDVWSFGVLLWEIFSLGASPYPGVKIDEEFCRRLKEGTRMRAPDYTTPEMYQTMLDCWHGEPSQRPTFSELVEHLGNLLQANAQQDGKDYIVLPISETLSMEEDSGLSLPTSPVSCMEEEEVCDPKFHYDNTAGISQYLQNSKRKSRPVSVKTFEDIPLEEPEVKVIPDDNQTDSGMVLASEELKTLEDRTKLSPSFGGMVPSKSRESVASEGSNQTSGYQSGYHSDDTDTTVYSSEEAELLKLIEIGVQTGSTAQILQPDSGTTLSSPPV
Sequence of Serine/threonine-protein kinase Sgk3 (Q96BR1 whole entry): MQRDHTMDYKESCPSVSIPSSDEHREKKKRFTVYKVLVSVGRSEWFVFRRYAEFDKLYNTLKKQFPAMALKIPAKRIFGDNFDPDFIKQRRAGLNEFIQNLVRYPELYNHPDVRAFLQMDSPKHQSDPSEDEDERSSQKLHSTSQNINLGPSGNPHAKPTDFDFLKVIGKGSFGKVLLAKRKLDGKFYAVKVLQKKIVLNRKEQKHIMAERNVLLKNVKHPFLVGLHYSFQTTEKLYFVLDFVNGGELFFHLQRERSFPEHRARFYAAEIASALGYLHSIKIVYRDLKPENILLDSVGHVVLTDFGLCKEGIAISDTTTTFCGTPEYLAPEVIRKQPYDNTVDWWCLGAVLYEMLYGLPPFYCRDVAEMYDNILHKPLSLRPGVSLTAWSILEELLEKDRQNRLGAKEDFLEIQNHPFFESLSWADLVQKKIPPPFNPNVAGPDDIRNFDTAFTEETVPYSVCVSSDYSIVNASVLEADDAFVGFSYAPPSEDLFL
Sequence of Gamma-aminobutyric acid type B receptor subunit 1 (Homo sapiens) (Q9UBS5 whole entry): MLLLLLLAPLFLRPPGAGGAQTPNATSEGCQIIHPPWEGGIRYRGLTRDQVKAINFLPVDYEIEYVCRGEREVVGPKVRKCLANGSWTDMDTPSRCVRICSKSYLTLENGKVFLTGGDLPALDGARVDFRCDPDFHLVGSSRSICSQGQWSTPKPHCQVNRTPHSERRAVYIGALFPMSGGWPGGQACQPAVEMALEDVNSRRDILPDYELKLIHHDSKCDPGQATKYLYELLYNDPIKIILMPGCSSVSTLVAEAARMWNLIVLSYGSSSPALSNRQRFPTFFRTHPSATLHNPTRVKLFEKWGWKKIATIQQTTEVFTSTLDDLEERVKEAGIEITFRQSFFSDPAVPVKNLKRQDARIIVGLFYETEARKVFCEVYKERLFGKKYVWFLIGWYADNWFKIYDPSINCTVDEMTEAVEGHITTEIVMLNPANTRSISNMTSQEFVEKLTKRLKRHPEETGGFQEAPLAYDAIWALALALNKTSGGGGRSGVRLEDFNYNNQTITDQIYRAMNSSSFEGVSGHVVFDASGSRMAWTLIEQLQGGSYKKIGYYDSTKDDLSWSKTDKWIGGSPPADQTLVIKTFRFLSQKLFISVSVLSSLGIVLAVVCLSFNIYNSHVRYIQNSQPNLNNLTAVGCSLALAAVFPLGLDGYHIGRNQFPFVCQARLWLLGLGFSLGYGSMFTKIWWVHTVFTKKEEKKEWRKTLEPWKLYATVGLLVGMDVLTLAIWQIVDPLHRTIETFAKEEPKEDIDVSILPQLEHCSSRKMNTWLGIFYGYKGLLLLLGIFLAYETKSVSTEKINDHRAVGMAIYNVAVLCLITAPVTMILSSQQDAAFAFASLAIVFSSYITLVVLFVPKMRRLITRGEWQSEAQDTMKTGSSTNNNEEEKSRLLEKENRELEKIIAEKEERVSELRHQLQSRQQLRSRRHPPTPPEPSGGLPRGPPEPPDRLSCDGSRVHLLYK
Sequence of Non-receptor tyrosine-protein kinase TNK1 (Q13470 whole entry): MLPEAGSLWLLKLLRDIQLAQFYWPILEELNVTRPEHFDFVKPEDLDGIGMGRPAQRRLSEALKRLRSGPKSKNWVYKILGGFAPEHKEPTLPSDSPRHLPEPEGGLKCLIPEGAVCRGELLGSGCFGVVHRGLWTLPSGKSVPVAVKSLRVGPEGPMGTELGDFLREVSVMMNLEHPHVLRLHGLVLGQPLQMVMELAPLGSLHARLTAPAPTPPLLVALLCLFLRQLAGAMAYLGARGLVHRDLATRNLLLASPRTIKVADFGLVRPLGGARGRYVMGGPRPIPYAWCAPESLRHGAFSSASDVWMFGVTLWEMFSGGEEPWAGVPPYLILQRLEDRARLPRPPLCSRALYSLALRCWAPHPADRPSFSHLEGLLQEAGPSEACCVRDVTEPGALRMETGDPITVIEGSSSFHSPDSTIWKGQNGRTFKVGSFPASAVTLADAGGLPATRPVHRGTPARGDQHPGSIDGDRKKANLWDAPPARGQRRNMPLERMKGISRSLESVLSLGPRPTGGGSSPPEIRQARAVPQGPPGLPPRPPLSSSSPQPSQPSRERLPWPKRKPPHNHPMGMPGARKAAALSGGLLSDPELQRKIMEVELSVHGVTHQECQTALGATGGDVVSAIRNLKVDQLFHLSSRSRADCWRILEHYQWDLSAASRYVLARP
Sequence of Casein kinase I isoform gamma-1 (Q9HCP0 whole entry, canonical isoform): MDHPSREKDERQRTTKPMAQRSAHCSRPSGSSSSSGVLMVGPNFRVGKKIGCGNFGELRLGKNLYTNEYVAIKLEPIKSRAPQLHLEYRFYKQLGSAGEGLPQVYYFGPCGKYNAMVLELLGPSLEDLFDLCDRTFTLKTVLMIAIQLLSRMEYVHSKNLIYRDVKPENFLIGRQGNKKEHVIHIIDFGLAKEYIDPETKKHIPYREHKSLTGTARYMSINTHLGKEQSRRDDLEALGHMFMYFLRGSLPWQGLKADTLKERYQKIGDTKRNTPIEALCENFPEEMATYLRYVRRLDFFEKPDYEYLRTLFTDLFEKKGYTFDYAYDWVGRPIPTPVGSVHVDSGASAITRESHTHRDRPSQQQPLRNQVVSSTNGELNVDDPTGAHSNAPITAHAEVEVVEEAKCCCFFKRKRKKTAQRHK
Sequence of Muscarinic acetylcholine receptor M3 (Homo sapiens) (P20309 whole entry, looked up): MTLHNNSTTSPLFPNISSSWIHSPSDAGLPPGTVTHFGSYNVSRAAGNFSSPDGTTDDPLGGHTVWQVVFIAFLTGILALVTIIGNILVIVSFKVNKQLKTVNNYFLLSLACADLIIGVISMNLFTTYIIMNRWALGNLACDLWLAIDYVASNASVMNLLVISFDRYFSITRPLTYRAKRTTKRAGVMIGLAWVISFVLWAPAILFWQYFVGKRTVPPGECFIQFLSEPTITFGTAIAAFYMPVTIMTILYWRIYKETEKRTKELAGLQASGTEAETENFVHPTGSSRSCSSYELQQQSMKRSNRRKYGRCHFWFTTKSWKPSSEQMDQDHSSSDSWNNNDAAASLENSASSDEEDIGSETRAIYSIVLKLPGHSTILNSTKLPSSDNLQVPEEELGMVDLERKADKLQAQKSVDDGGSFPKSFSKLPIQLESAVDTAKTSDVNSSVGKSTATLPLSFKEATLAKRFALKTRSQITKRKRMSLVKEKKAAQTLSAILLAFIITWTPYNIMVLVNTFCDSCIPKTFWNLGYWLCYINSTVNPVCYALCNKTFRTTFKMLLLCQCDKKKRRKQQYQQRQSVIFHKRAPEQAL

SMILES: CN1C(=O)[C@@H](N2CCc3c(nn(Cc4ccccc4)c3Br)C2=O)COc2ccccc21 [TP-030-2]
- inhibition [1]: 11%
- IC50 [2]: 1000 nM
- inhibition [3]: 1%
- IC50 [4]: 1000 nM
- IC50 [5]: 1000 nM
- IC50 [6]: 1000 nM
- inhibition (Rattus norvegicus): -6%
- IC50 (Ephrin type-A receptor 1): 1000 nM
- inhibition [7]: 11.7%
- inhibition [8]: 8%
- IC50 [9]: 1000 nM
- IC50 [10]: 1000 nM
- IC50 [11]: 1000 nM
- IC50 [12]: 1000 nM
- IC50 [13]: 1000 nM
- IC50 [14]: 1000 nM
- IC50 [15]: 1000 nM
- inhibition [16]: 39.3%
- IC50 [17]: 1000 nM
- IC50 [18]: 1000 nM
- IC50 [19]: 1000 nM
- inhibition [20]: 18%
- IC50 [21]: 1000 nM
- IC50 [22]: 1000 nM
- inhibition [23]: 5%
- IC50 [24]: 1000 nM
- inhibition [25]: 17%
- inhibition [26]: 1%
- IC50 [27]: 1000 nM
- IC50 [28]: 1000 nM
- IC50 [29]: 1000 nM
- IC50 [30]: 1000 nM
- IC50 [31]: 1000 nM
- IC50 [32]: 1000 nM
- IC50 [33]: 1000 nM
- inhibition [34]: 16.5%
- inhibition [35]: 1.23%
- IC50 [36]: 1000 nM
- IC50 [37]: 1000 nM
- IC50 [38]: 1000 nM
- inhibition [39]: -4%
- inhibition [40]: 7%
- IC50 [41]: 1000 nM
